# Measured values from the supplement of paper PMC11451515.
# Tested on: P12-Ichikawa
# Test: cell viability relative to DMSO control; higher = less cytotoxic
# Conditions: 48 h
# In short: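 Cells were incubated for 48 h at 37°C before CellTiter-Glo One luminescence was read. The cells were NOMO1 or SEM (500 cells/well) or P12-Ichikawa (1000 cells/well) leukemia cells, adapted for at least four passages in each medium and seeded in 1536-well plates (5 μl). Dosing used library compounds in DMSO applied by pin over 11 threefold points, 47 μM to 0.79 nM. Viability is the per-plate percentage of DMSO wells, with cell-free wells as background.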
# [1] = HPLM + 10% dialyzed FBS, 0.000781 µM
# [2] = HPLM + 10% dialyzed FBS, 0.00234 µM
# [3] = HPLM + 10% dialyzed FBS, 0.00702 µM
# [4] = HPLM + 10% dialyzed FBS, 0.0211 µM
# [5] = HPLM + 10% dialyzed FBS, 0.0632 µM
# [6] = HPLM + 10% dialyzed FBS, 0.19 µM
# [7] = HPLM + 10% dialyzed FBS, 0.569 µM
# [8] = HPLM + 10% dialyzed FBS, 1.71 µM
# [9] = HPLM + 10% dialyzed FBS, 5.12 µM
# [10] = HPLM + 10% dialyzed FBS, 15.4 µM
# [11] = HPLM + 10% dialyzed FBS, 46.1 µM
SMILES,"cell viability (RPMI 5 mM glucose + 10% FBS, 0.000781 µM)","cell viability (RPMI 5 mM glucose + 10% FBS, 0.00234 µM)","cell viability (RPMI 5 mM glucose + 10% FBS, 0.00702 µM)","cell viability (RPMI 5 mM glucose + 10% FBS, 0.0211 µM)","cell viability (RPMI 5 mM glucose + 10% FBS, 0.0632 µM)","cell viability (RPMI 5 mM glucose + 10% FBS, 0.19 µM)","cell viability (RPMI 5 mM glucose + 10% FBS, 0.569 µM)","cell viability (RPMI 5 mM glucose + 10% FBS, 1.71 µM)","cell viability (RPMI 5 mM glucose + 10% FBS, 5.12 µM)","cell viability (RPMI 5 mM glucose + 10% FBS, 15.4 µM)","cell viability (RPMI 5 mM glucose + 10% FBS, 46.1 µM)",cell viability [1],cell viability [2],cell viability [3],cell viability [4],cell viability [5],cell viability [6],cell viability [7],cell viability [8],cell viability [9],cell viability [10],cell viability [11]
NC(=O)c1cnc(-c2ccc(C3(N)CCC3)cc2)c(-c2ccccc2)c1,118%,126%,115%,111%,115%,134%,121%,116%,111%,80.4%,67.9%,,,,,,,,,,,
Clc1ccccc1C(c1ccccc1)(c1ccccc1)n1cccn1,,,,,,,,,,,,123%,134%,119%,129%,125%,130%,122%,126%,128%,116%,114%
CN1\N=N/C2=C(N=C[N]2C1=O)C(N)=O,,,,,,,,,,,,127%,124%,125%,121%,128%,125%,134%,127%,128%,115%,88.8%
